These results are taken from US4202968A, “New tunicamine derivatives and their preparation” (Meiji Seika Kaisha, Ltd., priority 1977, dated 1980).

Assay [1] concerns Newcastle disease virus (NDV), influenza virus and tobacco-mosaic virus. The following applies: cited from earlier work.
Assay [2] relates to genera Bacillus, Candida, Microbacterium. The following applies: cited from earlier work.
In the next assay the test system is Eimeria tenella. The experiment in a line: Inhibitory activity against coccidiosis in chicks orally inoculated with Eimeria tenella oocysts. The assay is classed as in vivo, chicks (domestic fowls) infected with Eimeria tenella. The arrangement: key to Presence of hemaferia: -: Not existing; ±: Something like hemaferia is likely to exist; +: A little hemaferia exists; ++: Distinct hemaferiae exist in places; +++: Distinct hemaferiae exist almost over the whole; ++++: The whole are hemaferiae. How it is done:
Inhibitory activity of tunicamine derivative C against coccidiosis was tested in the following manner. Primary chicks newly-hatched out were raised with a standard assorted feed for chicks containing no tunicamine derivative C for the first 7 days and on and after the 8th day with the same feed as above but containing a 100 ppm or 200 ppm concentration of tunicamine derivative C. On the 8th day from the hatch the body weight of the chicks was taken and they were divided into test groups of five chicks per group so as to balance the weight distribution for respective groups. On the 9th day, each chick was orally inoculated with 5.0×10^4 matured oocysts of Eimeria tenella. Assessment was made by observation and determination of the presence of […] on the 4, 5, 6, 7 and 8 from day inoculation; percent of survivals on the 8th day and the extend of symptoms on the 8th day from the inoculation were then evaluated.

Setting [3] is: 100 ppm in feed, 8th day from inoculation.
[4] abbreviates: 200 ppm in feed, 8th day from inoculation.

On to tunicamycin, for which the antiviral activity entry in assay [1] is on record as “high”. Also, the antibacterial activity entry in assay [2] is “high”.
Regarding `NC1C(O)OC(CC(O)C2OC(n3ccc(=O)[nH]c3=O)C(O)C2O)C(O)C1O` (stereo not shown) [tunicamine derivative C], the entries for the “Relative increase in body weight” value with Eimeria tenella (100 ppm in feed) and in the assay on Eimeria tenella (200 ppm in feed) were 96% and 102%, respectively. The Presence of hemaferia result with Eimeria tenella (100 ppm in feed, 4th day from inoculation) is given as “-”; in the assay on Eimeria tenella (100 ppm in feed, 5th day from inoculation) it was “-”; in the assay with Eimeria tenella (100 ppm in feed, 6th day from inoculation) it was “±”; in the assay on Eimeria tenella (100 ppm in feed, 7th day from inoculation) it was “±”; in the assay on Eimeria tenella (setting [3]), “+”; in the assay with Eimeria tenella (200 ppm in feed, 4th day from inoculation) it was “-”. Besides, the Presence of hemaferia result was “-” in the assay with Eimeria tenella (200 ppm in feed, 5th day from inoculation); “-” in the assay on Eimeria tenella (200 ppm in feed, 6th day from inoculation); “-” in the assay on Eimeria tenella (200 ppm in feed, 7th day from inoculation); “-” in the assay on Eimeria tenella (setting [4]). The Percent of survivals in the assay on Eimeria tenella (setting [3]) and in the assay on Eimeria tenella (setting [4]) was 100% in each case.
